Test results: patent publication US20010049353A1, “Method of using secretin and compositions made therefrom for the treatment of autism and other neurological, behavioral and immunological disorders” (Repligen Corporation, priority 1998, published 2001)
No end group written: not given here.

Assays:
[1] = tested on: patient, a child with symptoms of autism; assay: Intravenous secretin infusion in a child with symptoms of autism (Example 1); assay type: in vivo, human
Text: The present invention will be better understood from the following examples which are given by way of illustration and not by way of limitation. The patient, the same in both examples, is a child with symptoms of autism.
The patient in the present examples developed normally […], with the exception of gastrointestinal problems (i.e., chronic diarrhea and constipation) which began at about six months. At about thirteen months, when whole milk was introduced into their diet, the patient began having reoccurring ear infections. At about fourteen months, the patient appeared to lose the ability to process language, first receptively (at about 14 months) then expressively (at about 16 months). The patient also experienced episodes of “shivers” that appeared to be intermittent seizures.
After consulting with numerous neurologists, pediatricians, child development specialists, audiologists, endocrinologists, allergists, and other medical professionals, no consistent diagnosis had been reached. […] The term autism is used herein for reference purposes only, and this invention is intended to apply to any number of pervasive developmental disorders as well as neurological and immunological disorders.
Further, the patient's secretin cells prior to receiving treatment, measured at a level of 9, are far below the normal limit in the range of 20-70.
When the patient was […], the secretin was administered by way of an infusion as part of an upper gastrointestinal endoscopy. The secretin was used in this diagnostic procedure at the request of the patient's parents, one of which is an inventor of the present invention. The secretin used in this procedure is known as Secretin-Ferring available from Ferring Laboratories, Inc., Suffern, New York (See Appendix A). The secretin was dissolved in a […] of sodium chloride and administered in a dosage of 2 clinical units (CU) per kilogram (kg) body weight by intravenous injection over one minute. […] The diagnostic tests performed on the patient during this procedure also indicated gastric inflammation. […] The following Table I summarizes the improvements observed in the patient within 3 weeks after the infusion of secretin.

[2] = tested on: patient, a child with symptoms of autism; assay: Daily transdermal secretin with DMSO in the same patient (Example 2); assay type: in vivo, human
Protocol: At the time of this treatment, the patient was […]. Secretin was administered transdermally using pharmaceutical grade dimethyl sulfoxide (DMSO) (generally 99.9% pure) available from Clinic Service Co., Box 2512, Hemet Calif. 92543. The secretin (Secretin-Ferring) was administered daily in a dosage of about 75 CU over a five day period (i.e., about 15 CU daily). For each treatment, about 4 drops of DMSO were placed onto the skin of the patient, about 15 CU of the crystalline secretin was placed onto the DMSO, and the composition was rubbed into the skin.

[3] = tested on: abnormal opioid peptides in autistic children; details: autistic children that responded to casein free and gluten free diet; measured before and after infusion; cited from earlier work

secretin (HSDGTFTSELSRLRDSARLQRLLQGLV; not fully specified; ends and bridges not checked; UniProt P63298 33-59, looked up) [polypeptide hormone secreted by the mucosa of the duodenum and upper jejunum; used as Secretin-Ferring from Ferring Laboratories]
time at which the rate of progress appeared to decrease ([1]; after first infusion, behavioral improvements continued): about 5 weeks
SPECT scan perfusion of the right posterior parietal and right temporal lobes ([1]; after the treatment): improved
rubella titers ([1]; after the treatment, before: 5.8): 2.3
serotonin levels in blood ([1]; blood tests after the treatment): a rise in serotonin levels
pancreatic juice released ([1]; immediately after 2 CU/kg iv over one minute, usual rate 1-2 ml/min): approximately 10 ml/min
result of second and third infusions ([1]; second infusion about 9 months after the first, third about three months after the second): achieved the same results
spinning episodes ([1]; within 3 weeks after infusion, before: 1-2 times/week): No spinning episodes.
toilet training ([1]; within 3 weeks after infusion, before: diapers only): Completely potty trained.
eye contact, share of the time ([1]; within 3 weeks after infusion, before: minimal eye contact): Eye contact 75% of the time.
connections made between language and objects ([1]; within 3 weeks after infusion, before: no apparent connections): Many connections made between
words spoken ([1]; within 3 weeks after infusion, before: two words): 100's of words-will repeat some
interaction with videos ([1]; within 3 weeks after infusion, before: watch videos): Now, gets “involved” interactively
water consumption ([1]; within 3 weeks after infusion, no change, before: approximately 50 cups per day): change approximately 50 cups per cups per day
chronic abnormal bowel movements ([1]; within days after administration, no change in diet): became normal
language ([2]; transdermal with DMSO, about 15 CU daily, within about 6 months): progressed to spontaneous and conversational language
autistic behavioral symptoms on stopping the daily dose ([2]; when the daily dose of secretin is stopped): the autistic behavioral symptoms return
abnormal opioid peptides after secretin infusion [3]: the peptides disappeared
